Measured values: patent publication US8003348B2, “Method for the mass expression of an antimicrobial peptide by co-expression of a basic antimicrobial peptide and an acidic peptide using a translational coupling system” (Korea Advanced Institute of Science and Technology, priority 2007, dated 2011)

Experiment: antimicrobial activity of the recombinant antimicrobial peptide
Type: cell-based
Conditions: recombinant histonin II purified from E. coli BL21(DE3)/pmIF3H, compared with naturally-occurring antimicrobial peptide

RAGLQFPVGRLLRRLLRRLLR (histonin II peptide) [recombinant antimicrobial peptide]
antimicrobial activity: substantially the same antimicrobial activity as a naturally-occurring antimicrobial peptide
